Source: patent US8969565B2, “Imidazo[1,2-b]pyridazine-based compounds, compositions comprising them, and methods of their use” (Lexicon Pharmaceuticals, Inc., priority 2012, dated 2015)

Tests used:
AAK1 [1] = biological target: T1, AAK1 (Homo sapiens, UniProt Q2M2I8); test: HEK281 cell-based assay (phospho-mu2 Western blot in transfected HEK293F cells); conditions: 3 hours incubation, read-out: CBA IC50
T1 construct: HA; expressed in transfected cells; host or cells: HEK293F
Method in brief: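 After 3 hours at 37° C. with compound (five 3-fold-spaced concentrations, DMEM+0.5% FBS), transiently transfected HEK293F cells expressing full-length human AAK1 and Flag-tagged mu2 were lysed. mu2 phosphorylation was read by anti-phospho-mu2 immunoblot, normalized against total mu2 by anti-Flag blot.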

AAK1 [2] = biological target: T1, AAK1; test: P81 filter plate assay; assay type: biochemical; conditions: full-length human AAK1, Mu2 substrate
Method: Compounds were serially diluted into a Labcyte LDV plate (Labcyte, cat#LP-0200) using a Mutiprobe (PerkinElmer) and Biomek FX (Beckman Coulter) so that the highest compound concentration was at 96 μM. Compounds were then pinged (75 nL per well) into a Greiner 384-well reaction plate (Greiner, #781076) using an ECHO 550 Liquid Handler (Labcyte). A total of 12 μl reaction buffer (IMAP buffer containing Tween and DTT, from Molecular Devices) was then added to each well of columns 1 and 13 for the negative controls and 12 μl of 2×AAK1 (0.2 nM full-length human protein, NCBI accession no. NP_055726.2) was added to the remaining wells. Enzyme was then pre-incubated with compound for 10 minutes at RT. Reactions were initiated upon Minitrak (PerkinElmer) addition of 12 μl substrate mix containing 2×Mu2 (0.2 μM, full length human protein), 2× cold ATP (2 μM), and 1.3 μCi of hot ^33P-ATP. Reactions proceeded for one hour at RT. Meanwhile, Millipore 384-well P81 filter plates (Millipore, catalog #MZPHNOW10) were placed on a plate washer (Zoom ZW, from Titertek) and pre-wet with 50 μl 1% phosphoric acid. Kinase reactions were then stopped upon addition of 24 μl of 2% phosphoric acid to each well and the Minitrak was then used to transfer 40 μl from each well into the pre-wet Millipore 384-well P81 filter plates. Reaction mixtures were incubated for 10 minutes at RT in the P81 plates, followed by washing five times with 100 μl/well of 1% phosphoric acid using the Zoom filter washer. The bottom of each filter plate was sealed followed by addition of 20 μl Microscint 40 to each well, sealing the top of the plates with Flashplate cover, and then waiting one hour until reading on the TopCount (PerkinElmer).

T1 sequence (Q2M2I8 1-863 isoform Q2M2I8-2): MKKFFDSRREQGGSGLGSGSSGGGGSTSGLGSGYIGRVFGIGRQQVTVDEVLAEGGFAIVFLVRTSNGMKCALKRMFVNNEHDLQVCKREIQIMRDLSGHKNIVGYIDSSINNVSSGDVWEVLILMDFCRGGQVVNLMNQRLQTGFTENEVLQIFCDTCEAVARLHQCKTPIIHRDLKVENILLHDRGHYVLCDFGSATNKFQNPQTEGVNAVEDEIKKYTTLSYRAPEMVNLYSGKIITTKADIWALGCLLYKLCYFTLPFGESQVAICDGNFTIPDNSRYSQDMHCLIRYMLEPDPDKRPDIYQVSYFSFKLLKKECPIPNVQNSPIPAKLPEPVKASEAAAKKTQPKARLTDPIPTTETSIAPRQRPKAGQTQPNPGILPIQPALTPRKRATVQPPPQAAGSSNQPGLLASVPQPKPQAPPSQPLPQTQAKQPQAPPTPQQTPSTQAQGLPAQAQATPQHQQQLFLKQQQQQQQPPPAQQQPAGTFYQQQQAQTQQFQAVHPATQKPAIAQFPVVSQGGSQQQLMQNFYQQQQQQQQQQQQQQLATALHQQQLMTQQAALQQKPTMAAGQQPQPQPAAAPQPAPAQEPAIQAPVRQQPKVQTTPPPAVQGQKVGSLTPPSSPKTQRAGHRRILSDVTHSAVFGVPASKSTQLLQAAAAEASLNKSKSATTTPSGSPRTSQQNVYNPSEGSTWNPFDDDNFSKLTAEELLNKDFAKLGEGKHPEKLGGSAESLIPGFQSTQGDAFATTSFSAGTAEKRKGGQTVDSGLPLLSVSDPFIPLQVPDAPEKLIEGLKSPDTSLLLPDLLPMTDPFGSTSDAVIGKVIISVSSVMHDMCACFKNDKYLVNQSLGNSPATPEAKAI

SMILES	IC50 (AAK1 [1]) [µM]	IC50 (AAK1 [2]) [µM]
COCCOC(=O)N1CCN(c2ccc3ncc(-c4cccnc4OC)n3n2)CC1 [2-methoxyethyl 4-(3-(2-methoxypyridin-3-yl)imidazo[1,2-b]pyridazin-6-yl)piperazine-1-carboxylate]	≤ 0.1	≤ 0.01
CC(C)(C)CC(=O)N1CCN(c2ccc3ncc(-c4ccccc4)n3n2)CC1 [3,3-dimethyl-1-(4-(3-phenylimidazo[1,2-b]pyridazin-6-yl)piperazin-1-yl)butan-1-one]	≤ 0.1	≤ 0.01
NCc1ccc(-c2cnc3ccc(NCC4CCCN4CC(F)(F)F)nn23)cc1 (stereo not shown) [3-(4-(aminomethyl)phenyl)-N-((1-(2,2,2-trifluoroethyl)pyrrolidin-2-yl)methyl)imidazo[1,2-b]pyridazin-6-amine]	≤ 0.1	≤ 0.01
Oc1cccc(-c2cnc3ccc(NCCOC4CCCC4)nn23)c1 [3-(6-((2-(cyclopentyloxy)ethyl)amino)imidazo[1,2-b]pyridazin-3-yl)phenol]	≤ 1	≤ 0.01
c1cc2c(cc1-c1cnc3ccc(NCCOC4CCCC4)nn13)OCO2 [3-(benzo[d][1,3]dioxol-5-yl)-N-(2-(cyclopentyloxy)ethyl)imidazo[1,2-b]pyridazin-6-amine]	≤ 1	≤ 0.1
CC(C)(C)OC(=O)N1CCN(c2ccc3ncc(I)n3n2)CC1 [4-(3-Iodo-imidazo[1,2-b]pyridazin-6-yl)-piperazine-1-carboxylic acid tert-butyl ester]	≤ 0.1	≤ 0.01
N#Cc1ccc(-c2cnc3ccc(NCCOC4CCCC4)nn23)s1 [5-(6-((2-(cyclopentyloxy)ethyl)amino)imidazo[1,2-b]pyridazin-3-yl)thiophene-2-carbonitrile]	≤ 0.1	≤ 0.01
COc1ccccc1-c1cnc2ccc(N3CCN(C(=O)N4CCCCC4)CC3)nn12 [(4-(3-(2-methoxyphenyl)imidazo[1,2-b]pyridazin-6-yl)piperazin-1-yl)(piperidin-1-yl)methanone]	≤ 0.1	≤ 0.01
COc1ccccc1-c1cnc2ccc(N3CCN(C(=O)N4CCCC4)CC3)nn12 [(4-(3-(2-methoxyphenyl)imidazo[1,2-b]pyridazin-6-yl)piperazin-1-yl)(pyrrolidin-1-yl)methanone]	≤ 0.1	≤ 0.01
COc1ncccc1-c1cnc2ccc(N3CCN(C(=O)N4CCCCC4)CC3)nn12 [(4-(3-(2-methoxypyridin-3-yl)imidazo[1,2-b]pyridazin-6-yl)piperazin-1-yl)(piperidin-1-yl)methanone]	≤ 0.1	≤ 0.01
COc1ncccc1-c1cnc2ccc(N3CCN(C(=O)N4CCCC4)CC3)nn12 [(4-(3-(2-methoxypyridin-3-yl)imidazo[1,2-b]pyridazin-6-yl)piperazin-1-yl)(pyrrolidin-1-yl)methanone]	≤ 0.1	≤ 0.01
COc1cnccc1-c1cnc2ccc(N3CCN(C(=O)N4CCCC4)CC3)nn12 [(4-(3-(3-methoxypyridin-4-yl)imidazo[1,2-b]pyridazin-6-yl)piperazin-1-yl)(pyrrolidin-1-yl)methanone]	≤ 0.1	≤ 0.01
O=C(N1CCCCC1)N1CCN(c2ccc3ncc(-c4ccccc4)n3n2)CC1 [(4-(3-phenylimidazo[1,2-b]pyridazin-6-yl)piperazin-1-yl)(piperidin-1-yl)methanone]	≤ 0.1	≤ 0.01
O=C(N1CCCC1)N1CCN(c2ccc3ncc(-c4ccccc4)n3n2)CC1 [(4-(3-phenylimidazo[1,2-b]pyridazin-6-yl)piperazin-1-yl)(pyrrolidin-1-yl)methanone]	≤ 1	≤ 0.01
Cc1nc(C)c(-c2cnc3ccc(NC[C@@H]4CCCN4C(=O)CC(C)C)nn23)s1 [(S)-1-(2-(((3-(2,4-dimethylthiazol-5-yl)imidazo[1,2-b]pyridazin-6-yl)amino)methyl)pyrrolidin-1-yl)-3-methylbutan-1-one]	≤ 0.01	≤ 0.01
CC(C)CC(=O)N1CCC[C@H]1CNc1ccc2ncc(-c3cccc(Cl)c3)n2n1 [(S)-1-(2-(((3-(3-chlorophenyl)imidazo[1,2-b]pyridazin-6-yl)amino)methyl)pyrrolidin-1-yl)-3-methylbutan-1-one]	≤ 0.01	≤ 0.01
CC(C)CC(=O)N1CCC[C@H]1CNc1ccc2ncc(-c3cccc(F)c3)n2n1 [(S)-1-(2-(((3-(3-fluorophenyl)imidazo[1,2-b]pyridazin-6-yl)amino)methyl)pyrrolidin-1-yl)-3-methylbutan-1-one]	≤ 0.01	≤ 0.01
COc1cccc(-c2cnc3ccc(NC[C@@H]4CCCN4C(=O)CC(C)C)nn23)c1 [(S)-1-(2-(((3-(3-methoxyphenyl)imidazo[1,2-b]pyridazin-6-yl)amino)methyl)pyrrolidin-1-yl)-3-methylbutan-1-one]	≤ 0.1	≤ 0.01
CC(C)(C)C(=O)N1CCC[C@H]1CNc1ccc2ncc(-c3ccc(CN)cc3)n2n1 [(S)-1-(2-(((3-(4-(aminomethyl)phenyl)imidazo[1,2-b]pyridazin-6-yl)amino)methyl)pyrrolidin-1-yl)-2,2-dimethylpropan-1-one]	≤ 0.1	≤ 0.01
CC(C)(C)CC(=O)N1CCC[C@H]1CNc1ccc2ncc(-c3ccc(CN)cc3)n2n1 [(S)-1-(2-(((3-(4-(aminomethyl)phenyl)imidazo[1,2-b]pyridazin-6-yl)amino)methyl)pyrrolidin-1-yl)-3,3-dimethylbutan-1-one]	≤ 0.1	≤ 0.01
CCCC(=O)N1CCC[C@H]1CNc1ccc2ncc(-c3ccc(CN)cc3)n2n1 [(S)-1-(2-(((3-(4-(aminomethyl)phenyl)imidazo[1,2-b]pyridazin-6-yl)amino)methyl)pyrrolidin-1-yl)butan-1-one]	≤ 0.01	≤ 0.01

Second part, the compound after the results:

IC50 (AAK1 [1]) [µM]	IC50 (AAK1 [2]) [µM]	SMILES
≤ 0.1	≤ 0.01	CC(C)CC(=O)N1CCC[C@H]1CNc1ccc2ncc(-c3ccc(F)cc3)n2n1 [(S)-1-(2-(((3-(4-fluorophenyl)imidazo[1,2-b]pyridazin-6-yl)amino)methyl)pyrrolidin-1-yl)-3-methylbutan-1-one]
≤ 1	≤ 0.01	COc1ccc(-c2cnc3ccc(NC[C@@H]4CCCN4C(=O)CC(C)C)nn23)cc1 [(S)-1-(2-(((3-(4-methoxyphenyl)imidazo[1,2-b]pyridazin-6-yl)amino)methyl)pyrrolidin-1-yl)-3-methylbutan-1-one]
≤ 0.01	≤ 0.01	COc1ncccc1-c1cnc2ccc(NC[C@@H]3CCC(=O)N3CCC(C)(C)C)nn12 [(S)-1-(3,3-dimethylbutyl)-5-(((3-(2-methoxypyridin-3-yl)imidazo[1,2-b]pyridazin-6-yl)amino)methyl)pyrrolidin-2-one]
–	≤ 0.1	Cc1ccc(-c2cnc3ccc(NCCOC4CCCC4)nn23)s1 [N-(2-(cyclopentyloxy)ethyl)-3-(5-methylthiophen-2-yl)imidazo[1,2-b]pyridazin-6-amine]
–	≤ 0.01	c1csc(-c2cnc3ccc(NCCOC4CCCC4)nn23)c1 [N-(2-(cyclopentyloxy)ethyl)-3-(thiophen-2-yl)imidazo[1,2-b]pyridazin-6-amine]
–	≤ 0.1	c1cc(-c2cnc3ccc(NCCOC4CCCC4)nn23)cs1 [N-(2-(cyclopentyloxy)ethyl)-3-(thiophen-3-yl)imidazo[1,2-b]pyridazin-6-amine]
–	≤ 0.01	CC(C)NC(=O)N1CCN(c2ccc3ncc(-c4ccccc4)n3n2)CC1 [N-Isopropyl-4-(3-phenylimidazo[1,2-b]pyridazin-6-yl)piperazine-1-carboxamide]
–	≤ 0.01	COc1cnccc1-c1cnc2ccc(NC3CCCCC3)nn12 [N-cyclohexyl-3-(3-methoxypyridin-4-yl)imidazo[1,2-b]pyridazin-6-amine]
–	≤ 0.01	CC(C)OC(=O)N(C)[C@H]1CCN(c2ccc3ncc(Br)n3n2)C1 [[(S)-1-(3-Bromo-imidazo[1,2-b]pyridazin-6-yl)-pyrrolidin-3-yl]-methyl-carbamic acid isopropyl ester]
–	≤ 0.1	CCOC(=O)N1CCN(c2ccc3ncc(C(=O)NC)n3n2)CC1 [ethyl 4-(3-(methylcarbamoyl)imidazo[1,2-b]pyridazin-6-yl)piperazine-1-carboxylate]
–	≤ 0.1	CC(=O)c1cnc2ccc(N3CCN(C(=O)OC(C)C)CC3)nn12 [isopropyl 4-(3-acetylimidazo[1,2-b]pyridazin-6-yl)piperazine-1-carboxylate]
–	≤ 0.01	COC(=O)c1cnn(-c2ccc3ncc(-c4cccnc4OC)n3n2)c1 [methyl 1-(3-(2-methoxypyridin-3-yl)imidazo[1,2-b]pyridazin-6-yl)-1H-pyrazole-4-carboxylate]
–	≤ 1	COc1ncccc1-c1cnc2ccc(N3CC(N(C)C(=O)OC(C)(C)C)C3)nn12 [tert-butyl (1-(3-(2-methoxypyridin-3-yl)imidazo[1,2-b]pyridazin-6-yl)azetidin-3-yl)(methyl)carbamate]
